Laboratory results as given in patent US20040241648A1, “Phosphoribosyl pyrophosphate synthetase 1as herbicidal target” (priority 2000, published 2004).

Biological target: T1, Arabidopsis thaliana 5-phosphoribosyl-1-pyrophosphate synthetase 1 (Arabidopsis thaliana, UniProt Q42581)
T1 construct: His-tag (from vector pFastBacHTb); made in house; host or cells: Sf21 insect cells (recombinant baculovirus, pFASTBAC HTb-AtPrs1)
T1 sequence (Q42581 50-403): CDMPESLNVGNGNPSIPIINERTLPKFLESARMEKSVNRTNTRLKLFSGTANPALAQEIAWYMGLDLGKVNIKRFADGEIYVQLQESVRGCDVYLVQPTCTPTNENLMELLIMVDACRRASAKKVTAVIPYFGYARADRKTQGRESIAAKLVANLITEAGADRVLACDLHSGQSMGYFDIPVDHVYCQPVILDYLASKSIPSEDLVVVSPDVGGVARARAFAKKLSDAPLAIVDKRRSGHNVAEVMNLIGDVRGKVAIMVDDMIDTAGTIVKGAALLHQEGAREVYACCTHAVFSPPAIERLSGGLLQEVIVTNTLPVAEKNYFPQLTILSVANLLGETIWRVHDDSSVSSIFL
Test: 5-Phosphoribosyl-1-pyrophosphate synthetase 1 assay system (photometric, coupled enzyme, drop in NADH at 340 nm)
Type: biochemical
Conditions: 0.5-5 mM inhibitor, recombinant enzyme from Sf21 insect cells, 18 μg total protein
From the text: To obtain active Arabidopsis thaliana 5-phosphoribosyl-1-pyrophosphate synthetase 1 for high-throughput screening methods, the Arabidopsis thaliana Prs1 fragment is obtained from vector pGEM-T AtPrs1 (FIG. 2) using the restriction enzymes BamHI and EcoRI (cleavage sites inserted via primers RBPRPP3 and RBPRPP4) and cloned into the identically cleaved transfer vector pFastBacHTb (GibcoBRL). The resulting construct pFASTBAC HTb-AtPrs1 is used in accordance with the manufacturer's instructions (GibcoBRL) for generating recombinant Baculovirus. This virus is employed in accordance with the manufacturer's instructions (GibcoBRL) for infecting Sf21 insect cells in order to generate active 5-phosphoribosyl-1-pyrophosphate synthetase 1 enzyme. The specific enzymatic phosphoribosyl-pyrophosphate synthetase 1 activity is measured photometrically after the cells have been sonicated. The following components are employed per 90 μl batch: […]
After the cells had been sonicated in lysis buffer (50 mM NaH2PO4, 300 mM NaCl, pH 7.8), 18 μg of total protein are employed. […] What is measured is the drop in NADH at 340 nm.

For `Nc1ncnc2c1ncn2[C@@H]1O[C@H](COP(=O)(O)OP(=O)(O)OP(=O)(O)O)C[C@H]1O` [cordycepin-5′-triphosphate], which “inhibition of the enzymatic activity of the plant 5-phosphoribosyl-1-pyrophosphate synthetase 1” value is on record?
The value was “inhibits the enzymatic activity”.
